Measured values reported in ChEMBL document CHEMBL1150711, “Maquiroside A, a new cytotoxic cardiac glycoside from Maquira calophylla” (1987).
In brackets after ≈: the same amount, converted by molar mass.

Tested on: KB
Experiment: Cytotoxicity against human KB cells
Assay type: functional
Conditions: read-out: ED50 (the source's name)

CO[C@H]1C[C@H](O[C@H]2CC[C@@]3(CO)[C@H](CC[C@@H]4[C@@H]3CC[C@]3(C)[C@@H](C5=CC(=O)OC5)CC[C@]43O)C2)O[C@H](C)[C@H]1O [MAQUIROSIDE A]
EC50: 0.013 µg/mL (≈ 0.0243 µM)
